# Experimental data as given in patent publication US20130030007A1, “Obesity Small Molecules” (AKRON MOLECULES GMBH, priority 2010, published 2013).
# Where two headings read alike, the source gives them in different places. Non-standard residues stand in square brackets, D forms with d. Residues, ends and D or L forms follow the SMILES beside them. No end group written: not given here. pGlu = O=C1CC[C@@H](C(=O)O)N1; Thz = O=C(O)[C@@H]1CSCN1
# Legend:
# [1] = tested on: C57BL6/J DIO mice; settings: mouse, in vivo, ip, 5 mg/kg/day
# [2] = tested on: C57BL6/J DIO mice; assay: Body weight of diet-induced obese mice under daily compound administration; assay type: in vivo, mouse; settings: 5 mg/kg/day intraperitoneally, by day 28
# Description: FIG. 9. Loss of weight in Vandetanib administered mice. C57BL6/J DIO mice were administered 40/mg/kg/day by oral gavage. The mice were weighed daily and the values were expressed as a percentage of the starting weight (day 1). […] Error bars represent standard error of the mean.
# FIG. 13. Loss of weight in dasatininb administered mice. C57BL6/J DIO mice were administered 5/mg/kg/day for 27 days. The mice were weighed daily and the values were expressed as a percentage of the starting weight (day 1). […] Error bars represent standard error of the mean.
# General preferred layout: The mice were divided into cages of 2-4 mice per cage and allowed to acclimatise to the new housing conditions for at least 2 weeks. The mice were weighed every week to monitor their weight and ensure that the mice are either gaining weight or stabilized prior to initiation of the experiment. Mice were randomly assigned to weight-matched groups for compound administration. Compound dosage and routes of administration were determined based on published literature and pharmacokinetic studies. […]
# The dose of Vandetanib chosen for this study was 40 mg/kg/d. This has been determined to be an effective dose for the inhibition of the target VEGFR in various mouse cancer models. […] The mice were weighed on a daily basis during the experiment and monitored for overt signs of toxicity or stress. […]
# [3] = tested on: human ortholog of Drosophila obesity gene; assay: Table 1: type of interaction of small molecule with therapeutic target gene; set-up: key: O: Obesity - obesity pathway interaction; B: validated binding partner
# [4] = cited from earlier work
# [5] = tested on: human ortholog of Drosophila obesity gene; set-up: key: O: Obesity - obesity pathway interaction; B: validated binding partner; settings: cited from earlier work
# [6] = interaction of the small molecule with the human ortholog(s) / Drosophila gene(s) listed in the same table line
Molecule,Type: Type of interaction [5],"Type: Type of interaction [5, 6]",other results
Cc1nc(Nc2ncc(C(=O)Nc3c(C)cccc3Cl)s2)cc(N2CCN(CCO)CC2)n1 [Dasatinib],,,tolerability / adverse side effects [1]: well tolerated during the course of the study and no adverse side effects were observed; average loss of starting weight [2]: 20%
COc1ccc(-c2cc(=O)c3c(OC)c(OC)c(OC)c(OC)c3o2)cc1 [Tangeretin],,,Type: Type of interaction [3]: B
O=C(O[C@@H]1Cc2c(O)cc(O)cc2O[C@@H]1c1ccc(O)c(O)c1)c1cc(O)c(O)c(O)c1 [epicatechin gallate],,,Type: Type of interaction [3]: B
CCC(=O)O[C@]1(C(=O)SCF)[C@H](C)C[C@H]2[C@@H]3C[C@H](F)C4=CC(=O)C=C[C@]4(C)[C@@]3(F)[C@@H](O)C[C@@]21C [fluticasone propionate],,,"acute toxic effects ([4]; human, in vivo, po): no acute toxic effects reported; tolerability ([4]; intranasal 2 mg twice daily for 7 days, healthy human volunteers): well tolerated; tolerability ([4]; repeat oral doses up to 80 mg daily for 10 days in volunteers, up to 10 mg daily for 14 days in patients): well tolerated"
O=C1C[C@@H](c2ccc(O[C@@H]3O[C@H](CO)[C@@H](O)[C@H](O)[C@H]3O)cc2)Oc2cc(O)ccc21 [liquiritin],,,Type: Type of interaction [3]: O
C[C@@H]1Cc2c(Cl)cc(C(=O)N[C@@H](Cc3ccccc3)C(=O)O)c(O)c2C(=O)O1 [ochratoxin A],O,,
O=C(O[C@H]1[C@@H]2OC(=O)c3cc(O)c(O)c(O)c3-c3c4cc(c(O)c3O)Oc3c(cc(O)c(O)c3O)C(=O)O[C@H]3C(O)O[C@@H]5COC(=O)c6cc(O)c(O)c(O)c6-c6c(cc(c(O)c6O)Oc6c(cc(O)c(O)c6O)C(=O)O[C@H]1C(O)O[C@@H]2COC4=O)C(=O)O[C@H]5[C@@H]3OC(=O)c1cc(O)c(O)c(O)c1)c1cc(O)c(O)c(O)c1 (some centres unmarked) [oenothein B],B,,
CO[C@H]1C[C@H](O[C@H]2CC[C@@]3(C)[C@H](CC[C@@H]4[C@@H]3CC[C@]3(C)[C@@H](C5=CC(=O)OC5)[C@@H](OC(C)=O)C[C@]43O)C2)O[C@@H](C)[C@@H]1O [oleandrin],B,,
CCCCCCCC/C=C\CCCCCCCC(N)=O [oleylamide],B,,
COc1ccc(-c2coc3cc(O)cc(O)c3c2=O)cc1 [olmelin],B,,
O=C(N[C@H]1CCS[C@H]2CCC[C@@H](C(=O)O)N2C1=O)[C@@H](S)Cc1ccccc1 [omapatrilat],,O,
CNC(=N)NCCC[C@H](N)C(=O)O [omega-N-Methylarginine],O,,
COc1ccc2nc(S(=O)(=O)Cc3ncc(C)c(OC)c3C)[nH]c2c1 [omeprazole sulfone],,B,
CO[C@@H]1C(=O)CC[C@]2(CO2)[C@@]1(O)[C@@]1(C)O[C@@H]1CC=C(C)C [ovalicin],,B,
O=C(O)C(=O)O.[NH-][C@@H]1CCCC[C@H]1[NH-].[Pt+2] [oxaliplatin],O,,
O=c1[nH]c2ccccc2n1CCCN1CCN(C(c2ccccc2)c2ccccc2)CC1 [oxatomide],,B,
NC(=O)N1c2ccccc2CC(=O)c2ccccc21 [oxcarbazepine],,O,
O=C1CCC[C@@H]2[C@H]3CCC[N+]4([O-])CCC[C@@H](CN12)[C@@H]34 (some centres unmarked) [oxymatrine],,B,
Nc1ccc(C(=O)NCC(=O)O)cc1 [p-Aminohippuric Acid],,B,

Molecule,Type: Type of interaction [5],"Type: Type of interaction [5, 6]",other results
NCCC(O)(P(=O)(O)O)P(=O)(O)O [pamidronate],,B,
CC1(C)CCC[C@](C)([C@H]2CC[C@]3(C)[C@@H]2[C@H](O)C[C@@H]2[C@@]4(C)CC[C@H](O)C(C)(C)[C@@H]4CC[C@]23C)O1 [panaxadiol],,B,
c1ccc2c(c1)ccc1ccccc12 [phenanthrene],,O,
COc1cc([C@@H]2c3cc4c(cc3[C@H](O)[C@H]3COC(=O)[C@@H]23)OCO4)cc(OC)c1OC [picropodophyllin],,B,
O=C1CC[C@@H](C(=O)N2CSC[C@H]2C(=O)O)N1 [pidotimod] ([pGlu]-[Thz]-OH),,O,
CC1=CC(=O)c2c(O)cccc2C1=O [plumbagin],,B,
CC[C@@H]([C@H](C)O)n1ncn(-c2ccc(N3CCN(c4ccc(OC[C@@H]5CO[C@@](Cn6cncn6)(c6ccc(F)cc6F)C5)cc4)CC3)cc2)c1=O [posaconazole],,B,
CCCCC[C@H](O)/C=C/[C@H]1C=CC(=O)[C@@H]1CCCCCCC(=O)O [prostaglandin A1],O,,
CCCCC[C@H](O)/C=C/[C@H]1C(=O)C[C@H](O)[C@@H]1C/C=C\CCCC(=O)O [prostaglandin D2],B,,
CCCCC[C@H](O)/C=C/[C@H]1[C@H](O)CC(=O)[C@@H]1CCCCCCC(=O)O [prostaglandin E1],O,,
CCCCC[C@H](O)/C=C/[C@@H]1[C@@H](C/C=C\CCCC(=O)O)[C@@H](O)C[C@H]1O [prostaglandin F2alpha],O,,
CCCCC[C@H](O)/C=C/[C@@H]1[C@@H](C/C=C\CCCC(=O)O)[C@@H]2C[C@H]1OO2 [prostaglandin H2],O,,
CC(=O)O[C@@]12C[C@@H](C)[C@@]3(O)[C@@H](C=C(CO)C[C@]4(O)C(=O)C(C)=C[C@@H]34)[C@@H]1C2(C)C [prostratin],,O,
COCCCN1CCC(NC(=O)c2cc(Cl)c(N)c3c2OCC3)CC1 [prucalopride],,O,
COC(=O)C1=CC[C@@]23CC[C@@H]([C@@](C)(/C=C/C=C(\C)C(=O)O)OC2=O)[C@@]3(OC(C)=O)CC1 [pseudolaric acid B],O,,
O=c1c(-c2ccc(O)cc2)coc2c([C@@H]3O[C@H](CO)[C@@H](O)[C@H](O)[C@H]3O)c(O)ccc12 [puerarin],,B,
OCCOCCN1CCN(C2=Nc3ccccc3Sc3ccccc32)CC1 [quetiapine],,O,
COC1=C(CC(C)OC(=O)c2cc(Cl)c(O)cc2O)C(=O)C(NC=O)=CC1=O (centres unmarked) [radester],,O,
C[C@H](N[C@@H](CCc1ccccc1)C(=O)O)C(=O)N1[C@H](C(=O)O)C[C@@H]2CCC[C@@H]21 [ramiprilat],B,,

Molecule,Type: Type of interaction [5],"Type: Type of interaction [5, 6]",other results
O=c1c2ccccc2nc2n1CCc1c-2[nH]c2ccccc12 [rutecarpine],,,Type: Type of interaction [3]: B
O=C(/C=C/c1ccccc1)NC(NC(=S)Nc1cccc2cccnc12)C(Cl)(Cl)Cl (centres unmarked) [salubrinal],,,Type: Type of interaction [3]: B
LY 303511,O,,
Pyrethrins,,O,
mahanine,B,,
maraviroc,B,,
melitten,O,,
milbemycin,O,,
neodymium,O,,
"neuromedin C (GNHWAVGHLM; ends and bridges not checked; UniProt P07492 41-50, looked up)",,O,
obovatol,B,,
omalizumab,,B,
pegvisomant,O,,
pentosidine,B,,
pheophorbide a,O,,
pifithrin,B,,
pindobind,O,,
prostaglandin J2,O,,
